The results in this text go back to PubChem BioAssay AID179 (DTP/NCI, 2004).

Several values for one entry are separate records, joined by “and”; a condition that tells them apart may be missing. Equal values may be shown once. Activity calls are given as the source filed them.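 The calls were made as follows: active = compounds giving half or more protection of infected cells from virus-caused growth loss, again on retest; inactive = the rest.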 Where a SMILES comes first, the peptide text is derived from it. The star is where a group is joined. Fmoc = O=C(OCC1c2ccccc2-c2ccccc21)*; Boc = CC(C)(C)OC(=O)*; OtBu = CC(C)(C)O*

The experiment relates to CEM cells HIV-1 protection, formazan growth assay. As to the kind of experiment: NCI AIDS Antiviral Assay. To be noted: for IC50: measured here: growth of uninfected CEM cells. Put shortly:
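Human CEM cells, uninfected and HIV-1-infected, exposed to five drug concentrations; growth measured by soluble formazan assay and scored as percent protection from infection, with protecting compounds retested.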

As for `CC(=O)OCC1OC(n2c(C)cc(-c3ccco3)c(C#N)c2=S)C(OC(C)=O)C(OC(C)=O)C1OC(C)=O` (stereo unspecified), the EC50 was 126 µM and the concentration for half-maximal inhibition (IC50) was greater than 200 µM.

Regarding `CC(C)OP(=O)(CCCCCCCCC/C=C/c1ccc2c(c1)OCCOCCOCCOCCO2)OC(C)C`, the EC50 was greater than 200 µM and the half-maximal inhibitory concentration (IC50) worked out at 12.3 µM. In the case of `N/N=C1/C2CN3CCN(C2)CC1(c1ccc([N+](=O)[O-])cc1)C3`, the EC50 is greater than 200 µM and the 50% inhibitory concentration (IC50) is greater than 200 µM. In the case of `COc1ccc(/C=C2\CCCC(C(NO)c3ccc(OC)cc3)C2=NO)cc1` (stereo unspecified), the EC50 was greater than 19.1 µM and the IC50 was greater than 19.1 µM. In the case of `O=C1NC2OCC(O)C(O)C2O1` (stereo unspecified), the EC50 was greater than 200 µM and the concentration for half-maximal inhibition (IC50) was greater than 200 µM. As to `COCCN(CCNC(=O)c1cccc2c(N)c3cccc(C)c3nc12)CCOC`, the EC50 was greater than 2 µM and the half-maximal inhibitory concentration (IC50) amounted to 0.269 µM.

On to `CC(C)OC1=C(CC2(C)OCCO2)C(=O)C12OCCO2`, for which the EC50 was greater than 200 µM and the IC50 is greater than 200 µM. As to `CCOC(=O)c1sc(Nc2cc(Cl)ccc2Cl)nc1C`, the outcome was inactive. With `CN(C)CCOc1ccc(-c2c(Oc3ccccc3)c(=O)oc3ccccc23)cc1`, the EC50 is greater than 200 µM and the concentration for half-maximal inhibition (IC50) worked out at 8.71 µM. Turning to `C/C=C1\C[C@@H]2C(OC)Nc3cc(O)c(OC)cc3C(=O)N2C1` (stereo partly specified), the EC50 was greater than 813 µM and the IC50 amounted to 0.263 µM. For `Cc1c(C(=O)C/C(=N/NC(=O)C[N+](C)(C)C)C(=O)Nc2ccc(Cl)cc2)[n+](=O)c2ccccc2n1O`, the EC50 was greater than 9.12 µM and the 50% inhibitory concentration (IC50) is greater than 9.12 µM. In the case of `O=c1nc(Oc2c(F)c(F)c(F)c(F)c2F)ccn1C1OC(CO)C(O)C1O` (stereo unspecified), the EC50 was greater than 200 µM and the IC50 was 120 µM. Take `CC(C)CC(NC(=O)C(CO)NC(=O)C(CCCCN)NC(=O)C(CCCCN)NC(=O)C(NC(=O)CNC(=O)C(NC(=O)C(CO)NC(=O)C(NC(=O)C(NC(=O)C(CO)NC(=O)C(CC(N)=O)NC(=O)C(N)CCC(N)=O)C(C)C)C(C)C)C(C)O)C(C)C)C(=O)NC(Cc1ccccc1)C(=O)NC(CCC(N)=O)C(=O)O` (stereo unspecified) (H-QNSVVSTGVKKSLFQ-OH; configuration not given here): the result was inactive.

As for `CCOC(=O)CNC(=O)c1ccccc1SC(=O)CCCC[n+]1ccccc1`, the EC50 is greater than 20 µM and the half-inhibitory concentration (IC50) was found to be 0.363 µM. Turning to `COc1ccc(/C=N/N2C(=O)c3c(N)c(C#N)c(-c4ccccc4)c(-c4ccccc4)c3C2=O)cc1`, the EC50 is greater than 100 µM and the 50% inhibitory concentration (IC50) is greater than 100 µM.

Take `COc1cc(OC)c(-n2[nH]c(=O)n(C)c2=O)c(OC)c1`: the EC50 was greater than 200 µM and the 50% inhibitory concentration (IC50) is greater than 200 µM. `COc1ccc(N=C2S/C(=N\C(=Nc3ccccc3)SCc3ccccc3)N(c3ccccc3)C2=Nc2ccc(OC)cc2)cc1`: the EC50 was greater than 200 µM and the IC50 was 120 µM.

`CC1=CC(C)=Nc2ccc(C)cc2N1`: the EC50 is greater than 200 µM and the IC50 was 195 µM. As to `CC1=C2C3CCCC(C3=O)[C@H](C)C2CC1=O` (stereo partly specified), the outcome was inactive. Take `COCC1C(=O)c2cc3c(cc2C12C=CC1(C=C2)OCCO1)OCO3` (stereo unspecified): the EC50 was greater than 275 µM and the half-inhibitory concentration (IC50) came out at 11 µM.

Turning to `O=C(NC12CC3CCC1CC(C3)C2)[C@@H]1CCCN1C(=O)OCc1ccccc1` (stereo partly specified), the result was inactive. In the case of `CCOC(=O)C(NC(=O)c1ccccc1)[CH](c1ccccc1)[Sn]([c]1ccccc1)([c]1ccccc1)[c]1ccccc1` (stereo unspecified), the EC50 is greater than 200 µM and the half-maximal inhibitory concentration (IC50) stood at 20.4 µM. The matching figures for `CC12CCC(O)CC1=CCC1C2CCC2(C)C1CC1=CC(C#N)C(=O)NC12O` (stereo unspecified): greater than 49 µM and 28.8 µM. As for `CN(C)/C=C\c1c([N+](=O)[O-])ncn1C`, the EC50 is greater than 200 µM and the IC50 is greater than 200 µM. Take `COc1ccc(CCCNC(=O)Cc2ccccc2CO)cc1OC`: the EC50 is greater than 200 µM and the half-maximal inhibitory concentration (IC50) is greater than 200 µM. Regarding `Cc1c2c(n(Cc3ccccn3)c1C)NN=C(C#N)S2(=O)=O`, the EC50 was greater than 200 µM and the half-inhibitory concentration (IC50) was greater than 200 µM. For `COC(=O)C1=C(N)C2=C(N)Oc3ccccc3C2CC1=C(C#N)C#N` (stereo unspecified), the EC50 is greater than 200 µM and the half-inhibitory concentration (IC50) worked out at 47.9 µM.

Consider `CCOc1ccc(NC(=O)/C(=N\N)C(C(=O)OC)c2nc3ccc(Cl)cc3[nH]c2=O)cc1` (stereo unspecified), for which the EC50 was greater than 38.9 µM and the concentration for half-maximal inhibition (IC50) is greater than 38.9 µM. Take `Nc1nc(N)c(CCc2ccccc2)c(N)n1`: the outcome was inactive. As to `Cc1cc(=O)[nH]c(NN2C(Cl)C(=O)C2c2ccc(Cl)cc2)n1` (stereo unspecified), the EC50 was greater than 55 µM and the half-inhibitory concentration (IC50) was 4.68 µM.

On to `O=C1NNC2CCCCC2O1` (stereo unspecified), for which the EC50 is greater than 1150 µM and the half-maximal inhibitory concentration (IC50) was greater than 1150 µM. Consider `O=C1C[C@H](c2ccc(O)c(O)c2)Oc2cc(O)cc(O)c21`, for which the EC50 is greater than 631 µM and the IC50 was 97.7 µM. As for `O=C1c2ccc(S(=O)(=O)O)c(O)c2C(=O)c2ccc(S(=O)(=O)O)c(O)c21`, the outcome was inactive. As for `CN(C)c1nn2c(-c3ccccc3)nnc2s1`, the outcome was inactive. As to `CCCCNC(=S)/N=C/c1c(O)c2ccccc2[nH]c1=O`, the EC50 is greater than 200 µM and the IC50 was greater than 200 µM. Regarding `CCCCCCCCCCCCCC(=O)OCC1OC(n2cc(F)c(=O)[nH]c2=O)C(NC(=O)OCc2ccccc2)C(OC(=O)CCCCCCCCCCCCC)C1O` (stereo unspecified), the EC50 was greater than 11.7 µM and the IC50 is greater than 11.7 µM. Take `COC(=O)c1cc(CC2Cc3cc4c(cc3C2=O)CCC4)cc2c1CCC2` (stereo unspecified): the EC50 is 33.1 µM and the 50% inhibitory concentration (IC50) was greater than 200 µM.

`O=C1CCCC1CC(CN1CCOCC1)Sc1nnnn1-c1ccccc1` (stereo unspecified): the EC50 was greater than 200 µM and the IC50 was greater than 200 µM. As to `C[C@@H]1[C@@H](C)C(c2ccccc2)O[Si]1(C(C)(C)C)C(C)(C)C` (stereo partly specified), the EC50 is greater than 100 µM and the IC50 was found to be 56.2 µM. Regarding `O=c1oc2cc(O)ccc2c(O)c1C(c1ccc2ccccc2c1)c1c(O)c2ccc(O)cc2oc1=O`, the outcome was inactive. Turning to `O=C1c2nc3n(c2C(=O)c2c1nc1n2CCC1)CCC3`, the EC50 was greater than 200 µM and the IC50 came out at 3.72 µM. Take `N#CSCc1cccc(Nc2cc(=O)[nH]c(=O)[nH]2)c1`: the EC50 was greater than 200 µM and the concentration for half-maximal inhibition (IC50) was 25.7 µM. The corresponding values for `Cc1nc(NC(=S)NC(=O)c2ccc(Cl)c(Cl)c2)sc1C(=O)/C=C/c1ccccc1[N+](=O)[O-]` are greater than 19.1 µM and greater than 19.1 µM. The corresponding values for `CCC/C(Cl)=N\OC(=O)Nc1ccc(F)cc1` are greater than 20 µM and 2.82 µM. `COC1CCC(OS(C)(=O)=O)C(C)O1` (stereo unspecified): the EC50 was greater than 200 µM and the IC50 is 110 µM.

In the case of `Cc1cc(=O)oc2cc(OCCCOc3ccc4c(C)cc(=O)oc4c3)ccc12`, the EC50 was greater than 3.72 µM and the half-maximal inhibitory concentration (IC50) is greater than 3.72 µM. Regarding `O=[N+]([O-])c1ccc2c(Nc3ccccc3-c3ccccc3Nc3c4ccccc4nc4cc([N+](=O)[O-])ccc34)c3ccccc3nc2c1`, the EC50 is greater than 2.29 µM and the IC50 is greater than 2.29 µM. Regarding `Cc1cc2c(cc1C)C1=C(CCC2)C(=O)C(=O)O1`, the EC50 was greater than 200 µM and the IC50 came out at 110 µM. The corresponding values for `COC(=O)n1c(=O)n(-c2ccccc2)c(=O)n1C(=O)OC` are 155 µM and 195 µM.

As for `COC(=O)C(C(=O)C(N)=O)c1csc(-n2nc(-c3ccccc3)cc2-c2ccccc2)n1` (stereo unspecified), the EC50 was greater than 61.7 µM and the IC50 was found to be 53.7 µM. The matching figures for `Nc1nc(Cl)cc(NC23CC4CC(CC(C4)C2)C3)n1`: greater than 200 µM and greater than 200 µM. Turning to `CO/C=C/c1ccc2c(c1)OCO2`, the result was inactive. In the case of `C#CCOCC12C=CC(O1)C1C(=O)N(C)C(=O)C12` (stereo unspecified), the EC50 was greater than 200 µM; the half-inhibitory concentration (IC50) was 74.1 µM and 182 µM. With `O=c1ssc2ncccc12`, the EC50 was greater than 295 µM and the IC50 is greater than 100 µM.

Regarding `CCO/C=C/c1cc2c(c3c1-c1c(cc(OC)c(OC)c1OC)C3=O)OCO2`, the EC50 was greater than 6.46 µM and the IC50 was greater than 6.46 µM. Turning to `CCCCCCCCCCCCCC(=O)OCC(CCS(=O)(=O)O[C@H]1CC[C@@]2(C)C(=CC[C@@H]3C2CC[C@]2(C)C(=O)CCC32)C1)OC(=O)CCCCCCCCCCCCC` (stereo partly specified), the half-maximal effective concentration (EC50) is 39.8 µM and the IC50 was greater than 100 µM.

As to `CC(C)N(C(=O)C12C3C4C1C1C2C3C41C(=O)N(C(C)C)C(C)C)C(C)C` (stereo unspecified), the EC50 was greater than 72.4 µM and the IC50 is greater than 72.4 µM. In the case of `COC(=O)Nc1nc2ccc(C(=O)C3CC3)cc2[nH]1`, the EC50 was greater than 200 µM and the IC50 turned out to be 0.219 µM. On to `OCC1COc2cc(Cl)c(Cl)cc2O1` (stereo unspecified), for which the EC50 is greater than 200 µM and the IC50 worked out at 120 µM. For the molecule `O=C(CCc1ccccc1CO)NCCc1ccccc1`, the EC50 was greater than 200 µM and the IC50 was greater than 200 µM. In the case of `C[n+]1[se]c2ccccc2c1Cl`, the EC50 is greater than 186 µM and the half-inhibitory concentration (IC50) came to 7.24 µM.

For `Oc1cc(Br)cc2cccnc12`, the outcome was inactive. Turning to `O=C(O)CC1CC2CC(=O)C1C2` (stereo unspecified), the EC50 is greater than 200 µM and the IC50 was greater than 200 µM.

For the molecule `CC(C)(C)OC(=O)CCC(NC(=O)OCC1c2ccccc2-c2ccccc21)C(=O)NC(Cc1c[nH]c2ccccc12)C(=O)NC(CCCCNC(=O)OC(C)(C)C)C(=O)N1CCCC1C(=O)NCC(N)=O` (stereo unspecified) (Fmoc-E(OtBu)WK(Boc)PG-NH2; configuration not given here), the EC50 is greater than 100 µM; the half-maximal inhibitory concentration (IC50) is > 100 µM and 44.7 µM.

In the case of `CC12CCC(c3sc(N)c(C#N)c31)C2(C)C` (stereo unspecified), the EC50 is greater than 191 µM and the half-inhibitory concentration (IC50) amounted to 35.5 µM.

For `O=C(CN(c1ccc(S(=O)(=O)O)cc1)c1ccc(S(=O)(=O)O)cc1)Nn1cnc2ccc(S(=O)(=O)N(c3ccc(S(=O)(=O)O)cc3)c3ccc(S(=O)(=O)O)cc3)cc2c1=O`, the EC50 was greater than 100 µM and the IC50 amounted to 95.5 µM.

Regarding `CC1(C)C=CC(C)(C)c2c(NS(=O)(=O)c3ccccc3)ccc(NS(=O)(=O)c3ccccc3)c21`, the EC50 is greater than 200 µM and the IC50 was found to be 63.1 µM. As for `COc1ccc(/C=C2\N=C(SC)N(CN3CCCCC3)C2=O)cc1`, the EC50 is greater than 200 µM and the IC50 was greater than 200 µM.
